According to paper PMC2363166, “Water-soluble aluminium phthalocyanine–polymer conjugates for PDT: photodynamic activities and pharmacokinetics in tumour-bearing mice” (British Journal of Cancer, 1999):

Tests used:
[1] = Biodistribution and plasma clearance after i.v. injection in EMT-6 tumour-bearing mice; type: in vivo
From the text: (§1) Among the second-generation photosensitizers (PS) developed for the treatment of neoplastic diseases by photodynamic therapy (PDT) (Kessel, 1996; Ochsner, 1997), metallo-phthalocyanines (MePc) have been proposed (Spikes, 1986; van Lier, 1990; Rosenthal, 1991) as an alternative to Photofrin (PII), the only PS currently approved for clinical use. Their stronger absorption in the red part of the spectrum (molar extinction coefficient, […] at 675 nm), where the depth of light penetration in tissues is twice that obtained at 630 nm with PII (Svaasand, 1984), together with their chemical homogeneity and their lower potential to induce cutaneous photosensitivity (Roberts et al, 1989; Tralau et al, 1989) are major advantages over PII. Unsubstituted MePc are not soluble in physiological solvents and their in vivo administration relies upon their incorporation into carriers, such as the liposomal formulation of ZnPc (Isele et al, 1995), or their chemical conversion into water-soluble dyes by the attachment of selected substituents onto the benzene rings of the macrocycle. An inverse relationship was related between the degree of substitution by sulphonato groups of MePc and their hydrophobicity and photodynamic activities, both at the cellular level and in tumour-bearing mice (Brasseur et al, 1987, 1988; Paquette et al, 1988; Berg et al, 1989; Chan et al, 1990, 1991; Margaron et al, 1996a). The potential of the water-soluble aluminium sulphophthalocyanine (AlPcS) to generate activated oxygen species (Sharman et al, 1999) and to induce a photo- dynamic response in vivo has been widely evaluated, and a mixture of AlPcS bearing 2-4 sulphonato groups per Pc (Photosense) is used extensively and successfully in clinical PDT in Russia (Zharkova et al, 1994). […] The unsubstituted AlClPc has, however, attracted less attention even though it has been shown that this compound formulated as a Cremophor emulsion was preferentially retained by a gliosarcoma and was able to induce tumour necrosis in this model (Dereski et al, 1994). […] However, Cremophor oil is known to induce unwanted side-effects in patients (Dye and Watkins, Water-soluble aluminium phthalocyaninepolymer conjugates for PDT: photodynamic activities and pharmacokinetics in tumour-bearing mice N Brasseur, R Ouellet, C La Madeleine and JE van Lier MRC Group in the Radiation Sciences, Faculty of Medicine, Universite de Sherbrooke, Sherbrooke, Quebec, J1H 5N4, Canada Summary The potential use of unsubstituted aluminium phthalocyanine (AlClPc) as a sensitizer for photodynamic therapy (PDT) of cancer has not been fully exploited in spite of its higher efficiency as compared to the sulphonated derivatives. This is largely due to the strong hydrophobic character of AlClPc which renders the material difficult to formulate for in vivo administration. We prepared two water-soluble derivatives of AlClPc by axial coordination of polyethyleneglycol (PEG, MW 2000) or polyvinylalcohol (PVA, MW 13 000-23 000) to the central aluminium ion. Their photodynamic activities were evaluated in vitro against the EMT-6 mouse mammary tumour cells and in vivo against the EMT-6 and the colon carcinoma Colo-26 tumours implanted intradermally in Balb/c mice. Pharmacokinetics were studied in the EMT-6 tumour-bearing mice. […] All three dye preparations induced complete EMT-6 tumour regression in 75-100% of animals at a low drug dose ([…] ) following PDT (400 J cm-2 , 650-700 nm) at 24 h pi. Complete tumour regression in the Colo-26 tumour model was obtained in 30% of mice at a dose of […] . In the non-cured animals, AlPc-PVA induced the most significant tumour growth delay. […] Moreover, in the case of the polyvinylalcohol derivative, axial coordination confers advantageous pharmacokinetics to AlPc, which makes this photosensitizer a valuable, water soluble candidate drug for clinical PDT of cancer. […]

[2] = system: EMT-6 mouse mammary tumour cells; experiment: Cellular photoinactivation, MTT cell survival after red light; type: cell-based; details: 1% FBS, red light 660-700 nm
From the text: Among the second-generation photosensitizers (PS) developed for the treatment of neoplastic diseases by photodynamic therapy (PDT) (Kessel, 1996; Ochsner, 1997), metallo-phthalocyanines (MePc) have been proposed (Spikes, 1986; van Lier, 1990; Rosenthal, 1991) as an alternative to Photofrin (PII), the only PS currently approved for clinical use. Their stronger absorption in the red part of the spectrum (molar extinction coefficient, […] at 675 nm), where the depth of light penetration in tissues is twice that obtained at 630 nm with PII (Svaasand, 1984), together with their chemical homogeneity and their lower potential to induce cutaneous photosensitivity (Roberts et al, 1989; Tralau et al, 1989) are major advantages over PII. […] The potential of the water-soluble aluminium sulphophthalocyanine (AlPcS) to generate activated oxygen species (Sharman et al, 1999) and to induce a photo- dynamic response in vivo has been widely evaluated, and a mixture of AlPcS bearing 2-4 sulphonato groups per Pc (Photosense) is used extensively and successfully in clinical PDT in Russia (Zharkova et al, 1994). […] Their photodynamic activities were evaluated in vitro against the EMT-6 mouse mammary tumour cells and in vivo against the EMT-6 and the colon carcinoma Colo-26 tumours implanted intradermally in Balb/c mice. […]

Colo-26 tumour = experiment: Photodynamic therapy of the Colo-26 tumour implanted i.d. in Balb/c mice; type: in vivo; design: Oedema observed 24 h after PDT: key to the marks not given beside the values
From the text: as §1

EMT-6 tumour = details: 0.25 μmol kg-1 i.v., PDT 24 h p.i., 400 J cm-2, ref Chan et al (1997); cited from earlier work
[3] = 6 h after i.v. 2 μmol kg-1, n = 4
[4] = 24 h after i.v. 2 μmol kg-1, n = 4
[5] = 48 h after i.v. 2 μmol kg-1, n = 4
[6] = 168 h after i.v. 2 μmol kg-1, n = 4
[7] = Colo-26 tumour, 2 μmol kg-1 i.v., PDT 24 h p.i., 400 J cm-2

SMILES: [Cl][Al]1[n]2c3c4ccccc4c2N=C2N=C(N=c4c5ccccc5c([n]41)=NC1=NC(=N3)c3ccccc31)c1ccccc12 [AlClPc, aluminium phthalocyanine]
- retention by the liver ([1]; 1-week pi, i.v. 2 μmol kg-1): 73%
- Tumour-to-plasma ratio [1, 3]: 0.4
- Tumour-to-skin ratio [1, 3]: 3.5
- Tumour-to-tumour skin ratio [1, 3]: 1.0
- Tumour-to-muscle ratio [1, 4]: 16.9
- Tumour-to-plasma ratio [1, 4]: >>
- Tumour-to-skin ratio [1, 4]: 5.3
- Tumour-to-tumour skin ratio [1, 4]: 1.0
- Tumour-to-muscle ratio [1, 5]: 19.5
- Tumour-to-plasma ratio [1, 5]: >>
- Tumour-to-skin ratio [1, 5]: 3.3
- Tumour-to-tumour skin ratio [1, 5]: 0.7
- Tumour-to-muscle ratio [1, 6]: >>
- Tumour-to-plasma ratio [1, 6]: >>
- Tumour-to-skin ratio [1, 6]: 2.0
- Tumour-to-tumour skin ratio [1, 6]: 0.9
- plasma half-life ([1]; i.v. 2 μmol kg-1, EMT-6 tumour-bearing mice): 2.6 h
- light dose required to kill 90% of cells (LD90) ([2]; 1 h incubation, 10 mW cm-2, max 36 J cm-2): 13.5 J cm-2
- light dose required to kill 90% of cells (LD90) ([2]; 24 h incubation, 10 mW cm-2): 4.5 J cm-2
- damage to leg muscle (Colo-26 tumour; 2 μmol kg-1, PDT 24 h p.i.): did not induce damage to leg muscle
- tumour regrowth delay relative to controls (Colo-26 tumour; Colo-26 tumour, 2 μmol kg-1, non-cured mice): 1.5 times that of the controls
- Tumour response, Regression (flat and necrotic within 3-5 days after PDT) (Colo-26 tumour; Colo-26 tumour, 2 μmol kg-1 i.v., PDT 24 h p.i., 200 mW cm-2, 400 J cm-2): 80 % of mice
- Oedema observed 24 h after PDT (Colo-26 tumour; [7]): ++
- Tumour response, Cure (complete tumour regression at 30 days minimum) (Colo-26 tumour; [7]): 30 % of mice
- Regrowth to 20 Vo (time for tumour to reach 20 times the volume at the time of PDT) (Colo-26 tumour; Colo-26 tumour, 2 μmol kg-1 i.v., PDT 24 h p.i., non-cured mice only, controls 15.0 (0.3)): 23.5 (2.1) days (s.e.m.)
- Oedema observed 24 h after PDT (EMT-6 tumour): +
- Tumour response, Cure (complete tumour regression at 21 days) (EMT-6 tumour): 100 % of mice
- Tumour response, Regression (flat and necrotic within 3-5 days after PDT) (EMT-6 tumour): 100 % of mice
